Laboratory results taken from patent publication US9458137B2, “Substituted indol-5-ol derivatives and their therapeutical applications” (NantBioScience, Inc., priority 2012, dated 2016).

Key:
CK1(y) = experiment: Kinase panel activity; type: biochemical, yeast; conditions: 0.1 μM, ATP Km
Protocol: (§1) The effect of NTW-3475 on kinase activity was tested for a wide range of kinases and is shown in Table 2: Summary Sheet, Activity % ATP Concentration: Km

ACK1(h) = ACK1(h) (Homo sapiens, UniProt Q07912); experiment: Kinase panel activity; type: biochemical; conditions: 0.1 μM, ATP Km
Protocol: as §1

ARK5(h) = ARK5(h) (Homo sapiens, UniProt O60285); experiment: Kinase panel activity; type: biochemical; conditions: 0.1 μM, ATP Km
Protocol: as §1

EphA1(h) = target: T1, EphA1(h) (Homo sapiens, UniProt P21709); experiment: Kinase panel activity; type: biochemical; conditions: 0.1 μM, ATP Km
T1 construct: purchased Millipore (KinaseProfiler service)
Protocol: as §1

EphA4(h) = target: T2, EphA4(h) (Homo sapiens, UniProt P54764); experiment: Kinase panel activity; type: biochemical; conditions: 0.1 μM, ATP Km
T2 construct: purchased Millipore (KinaseProfiler service)
Protocol: as §1

FGFR1(V561M)(h) = target: T3, FGFR1(V561M)(h) (Homo sapiens, UniProt P11362, V561M); experiment: Kinase panel activity; type: biochemical; conditions: 0.1 μM, ATP Km
T3 construct: purchased Millipore (KinaseProfiler service)
Protocol: as §1

GSK3α(h) = GSK3α(h) (Homo sapiens, UniProt P49840); experiment: Kinase panel activity; type: biochemical; conditions: 0.1 μM, ATP Km
Protocol: as §1

IGF-1R(h), activated = IGF-1R(h), activated (Homo sapiens, UniProt P08069); experiment: Kinase panel activity; type: biochemical; conditions: 0.1 μM, ATP Km
Protocol: as §1

IKKα(h) = IKKα(h) (Homo sapiens, UniProt O15111); experiment: Kinase panel activity; type: biochemical; conditions: 0.1 μM, ATP Km
Protocol: as §1

KDR(h) = KDR(h) (Homo sapiens, UniProt P35968); experiment: Kinase panel activity; type: biochemical; conditions: 0.1 μM, ATP Km
Protocol: as §1

Lck(h) = Lck(h) (Homo sapiens, UniProt P06239); experiment: Kinase panel activity; type: biochemical; conditions: 0.1 μM, ATP Km
Protocol: as §1

Lyn(h) = Lyn(h) (Homo sapiens, UniProt P07948); experiment: Kinase panel activity; type: biochemical; conditions: 0.1 μM, ATP Km
Protocol: as §1

MARK1(h) = target: T4, MARK1(h) (Homo sapiens, UniProt Q9P0L2); experiment: Kinase panel activity; type: biochemical; conditions: 0.1 μM, ATP Km
T4 construct: purchased Millipore (KinaseProfiler service)
Protocol: as §1

MSSK1(h) = target: T5, MSSK1(h) (Homo sapiens, UniProt Q9UPE1); experiment: Kinase panel activity; type: biochemical; conditions: 0.1 μM, ATP Km
T5 construct: purchased Millipore (KinaseProfiler service)
Protocol: as §1

Met(M1268T)(h) = target: T6, Met(M1268T)(h) (Homo sapiens, UniProt P08581, M1250T); experiment: Kinase panel activity; type: biochemical; conditions: 0.1 μM, ATP Km
T6 construct: purchased Millipore (KinaseProfiler service)
Protocol: as §1

PTK5(h) = target: T7, PTK5(h) (Homo sapiens, UniProt P42685); experiment: Kinase panel activity; type: biochemical; conditions: 0.1 μM, ATP Km
T7 construct: purchased Millipore (KinaseProfiler service)
Protocol: as §1

STK33(h) = target: T8, STK33(h) (Homo sapiens, UniProt Q9BYT3); experiment: Kinase panel activity; type: biochemical; conditions: 0.1 μM, ATP Km
T8 construct: purchased Millipore (KinaseProfiler service)
Protocol: as §1

Src(T341M)(h) = target: T9, Src(T341M)(h) (Homo sapiens, UniProt P12931, T341M); experiment: Kinase panel activity; type: biochemical; conditions: 0.1 μM, ATP Km
T9 construct: purchased Millipore (KinaseProfiler service)
Protocol: as §1

TLK2(h) = target: T10, TLK2(h) (Homo sapiens, UniProt Q86UE8); experiment: Kinase panel activity; type: biochemical; conditions: 0.1 μM, ATP Km
T10 construct: purchased Millipore (KinaseProfiler service)
Protocol: as §1

Yes(h) = Yes(h) (Homo sapiens, UniProt P07947); experiment: Kinase panel activity; type: biochemical; conditions: 0.1 μM, ATP Km
Protocol: as §1

cKit(V560G)(h) = cKit(V560G)(h) (Homo sapiens, UniProt P10721, V560G); experiment: Kinase panel activity; type: biochemical; conditions: 0.1 μM, ATP Km
Protocol: as §1

MLCK(h) = experiment: Kinase panel activity; type: biochemical, human; conditions: 0.1 μM, ATP Km
Protocol: as §1

c-RAF(h) = experiment: Kinase panel activity; type: biochemical, human; conditions: 0.1 μM, ATP Km
Protocol: as §1

[1] = system: human K562 chronic myelogenous leukemia (CML) xenograft; experiment: K562 CML xenograft model; type: in vivo, SCID mice; conditions: 5-day on, two-day off for two cycles; female SCID mice
Protocol: The objective of the second study was to evaluate antitumor activities of novel multiple-kinase inhibitor NTW-3475 in human K562 chronic myelogenous leukemia (CML) xenograft model in female SCID mice.
Four to six animals were randomly assigned to study groups. Each animal was weighed, and then injected subcutaneously in the left and right flank area with 0.1 ml of 8.0×10^7 K562 cells per mL.
Each test or control animal was on a 5-day on, two-day off for two cycles treatment schedule. Tumor growth was measured with a digital hand held caliper twice weekly (once tumor emerges) prior to the first dosing and then two to three times weekly until euthanized. Animals were weighed prior to tumor cell injection, prior to dosing, two to three times weekly with tumor growth measurements, and prior to euthanasia.
FIGS. 34 and 35 depict the results of various concentrations of NTW-3456 on a scid mouse/xenograft model of CML using K562 cells.

[2] = system: human MIAPaCa-2 pancreatic carcinoma xenograft; experiment: MIAPaCa-2 pancreatic carcinoma xenograft; type: in vivo, athymic nude-Faxn1 mice
Protocol: The objective of the third study was to evaluate antitumor activities of novel multiple-kinase inhibitor NTW-3475 in human MIAPaCa-2 pancreatic carcinoma xenograft in athymic nude-Faxn1 mice.
Four animals were randomly assigned to study groups. Each animal was weighed, and then injected subcutaneously in the left and right flank area with 0.1 ml of 5.0×10^7 MIAPaCa-2 cells per mL.
Each test or control animal was on a 5-day on, two-day off for two cycles treatment schedule with negative control vehicle, positive control Abraxane at 20 mg/kg or 25, 50 mg/kg of NTW-3475. Tumor growth was measured with a digital hand held caliper twice weekly (once tumor emerges) prior to the first dosing and then two to three times weekly until euthanized.
FIGS. 42-44 depict the results of various concentrations of NTW-3456 on a nude mouse/xenograft the MIAPaCa-2 model of pancreatic carcinoma.
FIGS. 45 and 46 depict the results of various concentrations of NTW-3456, with or without Abraxane on a MiaPaCa-2 model of pancreatic carcinoma.

[3] = system: TT human Thyroid carcinoma xenograft; experiment: TT thyroid carcinoma xenograft; type: in vivo, nude mouse; conditions: TT xenograft
Text: (§2) This example assesses NTW-3475's anti-tumor activity using a scid mouse xenograft models for leukemias and nude mouse xenograft models of endometrial, pancreatic and thyroid carcinomas. NTW-3475 combination therapy was also studied in murine xenografts.
FIGS. 36-38 depict the results of various concentrations of NTW-3456 on a nude mouse/xenograft the TT cell model of thyroid carcinoma.

[4] = system: AN3 human endometrial carcinoma carcinoma xenograft; experiment: AN3 endometrial carcinoma xenograft; type: in vivo, nude mouse; conditions: AN3 xenograft
Text: as §2
FIGS. 39-41 depict the results of various concentrations of NTW-3456 on the AN3 nude mouse/xenograft model of endometrial carcinoma.

T8 sequence (Q9BYT3 whole entry): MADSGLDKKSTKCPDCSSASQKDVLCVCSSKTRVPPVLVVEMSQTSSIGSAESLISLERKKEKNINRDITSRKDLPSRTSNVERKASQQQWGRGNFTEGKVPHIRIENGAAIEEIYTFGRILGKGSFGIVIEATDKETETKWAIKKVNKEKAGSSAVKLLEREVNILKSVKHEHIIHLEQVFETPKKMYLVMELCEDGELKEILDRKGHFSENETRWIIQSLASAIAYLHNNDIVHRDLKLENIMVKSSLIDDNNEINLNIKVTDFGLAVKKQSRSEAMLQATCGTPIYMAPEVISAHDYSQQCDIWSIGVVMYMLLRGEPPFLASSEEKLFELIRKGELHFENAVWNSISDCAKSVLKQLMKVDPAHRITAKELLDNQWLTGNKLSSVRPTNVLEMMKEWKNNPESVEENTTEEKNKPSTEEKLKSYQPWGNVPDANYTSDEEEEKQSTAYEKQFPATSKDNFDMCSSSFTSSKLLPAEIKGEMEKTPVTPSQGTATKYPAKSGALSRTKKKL
Chain of IKKα(h) (O15111 whole entry): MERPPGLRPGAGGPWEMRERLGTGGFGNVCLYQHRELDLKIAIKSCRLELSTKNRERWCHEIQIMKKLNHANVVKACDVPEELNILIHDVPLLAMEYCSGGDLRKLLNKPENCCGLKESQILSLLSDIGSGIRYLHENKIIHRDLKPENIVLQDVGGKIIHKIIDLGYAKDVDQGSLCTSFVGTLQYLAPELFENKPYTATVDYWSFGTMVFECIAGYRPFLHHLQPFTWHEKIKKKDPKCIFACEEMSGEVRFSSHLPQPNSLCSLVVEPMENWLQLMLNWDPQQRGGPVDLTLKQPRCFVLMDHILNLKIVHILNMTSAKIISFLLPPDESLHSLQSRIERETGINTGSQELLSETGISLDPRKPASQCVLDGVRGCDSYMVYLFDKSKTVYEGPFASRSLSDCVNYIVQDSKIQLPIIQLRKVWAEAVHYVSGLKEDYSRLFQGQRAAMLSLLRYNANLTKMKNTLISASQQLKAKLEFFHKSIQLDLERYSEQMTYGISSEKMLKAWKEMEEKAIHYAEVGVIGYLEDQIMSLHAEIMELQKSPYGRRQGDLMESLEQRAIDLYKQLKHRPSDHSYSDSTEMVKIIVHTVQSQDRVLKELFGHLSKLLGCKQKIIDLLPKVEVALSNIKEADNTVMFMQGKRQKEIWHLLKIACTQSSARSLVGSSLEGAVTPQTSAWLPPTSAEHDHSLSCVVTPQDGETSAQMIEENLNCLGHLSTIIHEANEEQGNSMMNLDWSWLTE
Chain of GSK3α(h) (P49840 whole entry): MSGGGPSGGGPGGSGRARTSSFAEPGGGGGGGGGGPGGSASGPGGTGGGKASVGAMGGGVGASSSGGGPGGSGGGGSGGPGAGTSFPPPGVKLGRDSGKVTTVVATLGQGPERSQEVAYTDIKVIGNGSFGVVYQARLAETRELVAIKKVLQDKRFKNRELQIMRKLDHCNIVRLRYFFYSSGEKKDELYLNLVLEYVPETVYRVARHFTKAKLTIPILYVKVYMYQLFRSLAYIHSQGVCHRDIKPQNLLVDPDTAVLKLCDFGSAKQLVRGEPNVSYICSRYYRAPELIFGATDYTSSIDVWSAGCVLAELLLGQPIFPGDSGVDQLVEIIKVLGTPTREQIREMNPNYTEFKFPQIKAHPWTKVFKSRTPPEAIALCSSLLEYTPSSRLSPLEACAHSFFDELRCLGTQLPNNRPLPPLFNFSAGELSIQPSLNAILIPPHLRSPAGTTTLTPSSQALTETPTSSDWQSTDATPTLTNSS
Chain of IGF-1R(h), activated (P08069 31-1367): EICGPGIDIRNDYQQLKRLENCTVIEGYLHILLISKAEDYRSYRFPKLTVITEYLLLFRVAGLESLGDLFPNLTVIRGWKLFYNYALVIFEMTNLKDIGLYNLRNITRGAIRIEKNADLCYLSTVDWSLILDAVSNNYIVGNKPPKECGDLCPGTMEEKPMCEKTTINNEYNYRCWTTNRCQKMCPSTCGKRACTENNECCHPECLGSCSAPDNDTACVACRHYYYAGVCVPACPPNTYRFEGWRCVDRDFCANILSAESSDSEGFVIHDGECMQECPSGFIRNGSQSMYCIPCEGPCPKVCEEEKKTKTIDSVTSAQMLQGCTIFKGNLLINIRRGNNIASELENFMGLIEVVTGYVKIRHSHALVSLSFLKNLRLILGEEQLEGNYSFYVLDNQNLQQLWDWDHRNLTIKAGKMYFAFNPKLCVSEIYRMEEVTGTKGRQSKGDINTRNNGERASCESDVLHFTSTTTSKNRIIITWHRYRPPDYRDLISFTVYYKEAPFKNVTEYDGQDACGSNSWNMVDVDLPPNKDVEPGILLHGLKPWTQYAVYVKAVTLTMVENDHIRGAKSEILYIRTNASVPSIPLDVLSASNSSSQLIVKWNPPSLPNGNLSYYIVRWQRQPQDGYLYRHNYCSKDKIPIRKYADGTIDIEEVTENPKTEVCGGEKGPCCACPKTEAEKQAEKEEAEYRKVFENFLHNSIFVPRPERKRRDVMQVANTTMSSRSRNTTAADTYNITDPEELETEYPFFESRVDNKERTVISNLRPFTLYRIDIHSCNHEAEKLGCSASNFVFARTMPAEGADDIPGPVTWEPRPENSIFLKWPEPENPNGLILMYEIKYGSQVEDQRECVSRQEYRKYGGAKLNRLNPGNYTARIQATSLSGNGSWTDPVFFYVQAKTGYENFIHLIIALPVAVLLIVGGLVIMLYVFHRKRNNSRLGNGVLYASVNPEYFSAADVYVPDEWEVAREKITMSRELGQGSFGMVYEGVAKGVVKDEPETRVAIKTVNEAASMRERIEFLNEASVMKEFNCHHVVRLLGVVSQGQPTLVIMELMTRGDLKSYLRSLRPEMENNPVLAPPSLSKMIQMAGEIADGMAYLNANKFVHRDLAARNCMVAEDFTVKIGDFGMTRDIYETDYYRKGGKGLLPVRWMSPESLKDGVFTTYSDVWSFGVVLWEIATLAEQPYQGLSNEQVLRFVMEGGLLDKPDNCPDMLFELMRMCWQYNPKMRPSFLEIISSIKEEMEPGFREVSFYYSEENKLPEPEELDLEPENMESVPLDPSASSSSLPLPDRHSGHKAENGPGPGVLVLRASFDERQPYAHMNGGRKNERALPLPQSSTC
T2 sequence (P54764 20-986): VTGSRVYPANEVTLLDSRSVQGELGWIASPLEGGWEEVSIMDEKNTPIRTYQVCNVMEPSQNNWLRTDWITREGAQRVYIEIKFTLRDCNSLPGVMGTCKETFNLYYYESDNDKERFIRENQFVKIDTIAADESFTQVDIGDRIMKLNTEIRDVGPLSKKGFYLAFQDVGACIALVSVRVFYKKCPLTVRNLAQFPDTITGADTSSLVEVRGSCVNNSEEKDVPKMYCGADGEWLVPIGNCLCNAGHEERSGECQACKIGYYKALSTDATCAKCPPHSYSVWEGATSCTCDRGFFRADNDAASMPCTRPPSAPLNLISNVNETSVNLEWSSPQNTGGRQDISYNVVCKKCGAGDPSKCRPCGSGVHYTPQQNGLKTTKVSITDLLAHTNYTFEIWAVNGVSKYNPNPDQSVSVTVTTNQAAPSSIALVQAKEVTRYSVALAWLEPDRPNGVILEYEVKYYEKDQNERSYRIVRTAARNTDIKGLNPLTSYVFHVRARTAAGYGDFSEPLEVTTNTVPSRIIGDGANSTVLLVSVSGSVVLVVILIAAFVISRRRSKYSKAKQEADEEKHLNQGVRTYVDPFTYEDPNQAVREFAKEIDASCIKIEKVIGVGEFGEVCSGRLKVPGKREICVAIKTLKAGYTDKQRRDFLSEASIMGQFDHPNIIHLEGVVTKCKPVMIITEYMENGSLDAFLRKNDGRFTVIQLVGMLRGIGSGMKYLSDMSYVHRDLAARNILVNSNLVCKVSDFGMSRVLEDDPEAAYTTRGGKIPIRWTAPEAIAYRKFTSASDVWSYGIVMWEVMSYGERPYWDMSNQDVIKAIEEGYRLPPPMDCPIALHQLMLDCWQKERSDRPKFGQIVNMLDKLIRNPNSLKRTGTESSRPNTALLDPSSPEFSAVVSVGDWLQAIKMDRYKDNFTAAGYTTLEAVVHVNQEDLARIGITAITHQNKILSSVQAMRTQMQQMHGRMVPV
T7 sequence (P42685 whole entry): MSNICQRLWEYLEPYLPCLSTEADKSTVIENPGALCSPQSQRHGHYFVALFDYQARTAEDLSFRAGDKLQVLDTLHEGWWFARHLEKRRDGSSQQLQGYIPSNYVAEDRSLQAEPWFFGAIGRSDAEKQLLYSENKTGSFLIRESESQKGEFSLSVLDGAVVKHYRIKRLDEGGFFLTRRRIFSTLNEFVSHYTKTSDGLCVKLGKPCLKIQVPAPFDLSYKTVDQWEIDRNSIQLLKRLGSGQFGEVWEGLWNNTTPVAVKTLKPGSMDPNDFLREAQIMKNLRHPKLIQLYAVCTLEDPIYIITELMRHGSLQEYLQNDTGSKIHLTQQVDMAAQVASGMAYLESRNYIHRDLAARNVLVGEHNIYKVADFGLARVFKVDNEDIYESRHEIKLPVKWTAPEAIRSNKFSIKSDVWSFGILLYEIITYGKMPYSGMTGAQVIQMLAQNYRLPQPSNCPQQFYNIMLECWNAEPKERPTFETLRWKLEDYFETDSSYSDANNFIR
Chain of Lck(h) (P06239 whole entry): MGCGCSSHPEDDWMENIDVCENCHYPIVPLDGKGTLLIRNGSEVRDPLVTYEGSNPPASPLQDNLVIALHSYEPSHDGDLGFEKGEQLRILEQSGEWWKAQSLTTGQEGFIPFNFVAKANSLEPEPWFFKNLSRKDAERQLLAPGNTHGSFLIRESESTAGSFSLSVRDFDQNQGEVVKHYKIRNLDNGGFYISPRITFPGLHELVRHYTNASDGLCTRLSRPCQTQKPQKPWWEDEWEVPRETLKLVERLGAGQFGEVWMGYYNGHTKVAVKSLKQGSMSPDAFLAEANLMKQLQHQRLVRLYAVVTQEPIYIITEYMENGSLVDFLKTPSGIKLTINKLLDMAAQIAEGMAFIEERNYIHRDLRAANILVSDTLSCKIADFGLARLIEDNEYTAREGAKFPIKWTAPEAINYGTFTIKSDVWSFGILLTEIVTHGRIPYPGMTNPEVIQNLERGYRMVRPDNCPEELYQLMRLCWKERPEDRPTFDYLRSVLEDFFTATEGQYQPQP

Activity % (CK1(y)): 100%
Activity % (ACK1(h)): 4%
Activity % (ARK5(h)): 2%
Activity % (EphA1(h)): 12%
Activity % (EphA4(h)): 23%
Activity % (FGFR1(V561M)(h)): −4%
Activity % (GSK3α(h)): 96%
Activity % (IGF-1R(h), activated): 18%
Activity % (IKKα(h)): 102%
Activity % (KDR(h)): 14%
Activity % (Lck(h)): −8%
Activity % (Lyn(h)): 5%
Activity % (MARK1(h)): 28%
Activity % (MSSK1(h)): 110%
Activity % (Met(M1268T)(h)): 22%
Activity % (PTK5(h)): 17%
Activity % (STK33(h)): 101%
Activity % (Src(T341M)(h)): 1%
Activity % (TLK2(h)): 5%
Activity % (Yes(h)): 0%
Activity % (cKit(V560G)(h)): 3%
Activity % (MLCK(h)): 110%
Activity % (c-RAF(h)): 94%
SMILES: Cc1cc2c(F)c(Oc3nc(Nc4cc(C5CC5)[nH]n4)cc(N4CCN(C)CC4)n3)cc(F)c2[nH]1 [NTW-3475]
anti-tumor effect against CML [1]: strong anti-tumor effect
anti-tumor effect against pancreatic carcinoma cells ([2]; 25, 50 mg/kg, 5-day on, two-day off for two cycles): strong anti-tumor effect
anti-tumor effect of the combination ([2]; in combination with Abraxane): anti-tumor effect
anti-tumor effect [3]: anti-tumor effect
anti-tumor effect [4]: anti-tumor effect
